Reference: publication PMC3030572, “Antamanide, a Derivative of Amanita phalloides, Is a Novel Inhibitor of the Mitochondrial Permeability Transition Pore” (PLoS ONE, 2011)
Entries after “also recorded” stand apart in the source; their conditions may differ.

Experiments:
HeLa cells [1] = type: cell-based, human; settings: clotrimazole; data not shown
[2] = tested on: organic anion-transporting polypeptide family; settings: also our unpublished data; ref [8]; cited from earlier work
Source text: (§1) Antamanide (AA) is a monocyclic, homodetic decapeptide isolated from the poisonous mushroom Amanita phalloides. […] Little is known about the biochemical mechanisms underlying these diverse bioactivities. […] The CyP chaperone activity, i.e. the isomerization to the cis form of the peptidyl bonds preceding each proline, is involved in folding and association processes required for proteins to perform thei ...

[3] = tested on: mitochondria isolated from wild-type fibroblasts; assay: mitochondrial respiration assay, wild-type fibroblast mitochondria; type: biochemical, mouse; settings: 8 µM AA; polarography, Clark electrode, 25°C; repeated at least three times
Experimental: (§2) Figure 3 Effect of AA on respiration and PTP opening in mitochondria of wild-type or CyP-D knock-out mouse fibroblasts. A, upper part: Western blot analysis assessing CyP-D expression in fibroblasts obtained from either wild-type or CyP-D knock-out mice; HKII was utilized to verify protein load; lower part: representative experiment showing oxygen consumption as assessed by polarography (see Methods) in mitochondria isolated from wild-type fibroblasts in the absence (a) or presence (b) of 8 µM AA. Experiments were started by adding 0.6 mg of mitochondria (Mito), followed by 100 µM ADP and 50 µM 2,4-dinitrophenol (DNP) (arrows). Each experiment was repeated at least three times. Oxygen consumption is reported as percentage of initial value on the y axis. B, bar graphs report the ratio between the CRC detected in the presence (CRC) and absence (CRC0) of increasing concentrations of AA, in mitochondria from either wild-type fibroblasts (left) or CyP-D knock-out fibroblasts (right). […] Results are mean±SD of at least 4 experiments.
(§3) Mitochondrial oxygen consumption was measured polarographically at 25°C with a Clark oxygen electrode (Yellow Springs Instruments, OH, USA). Mitochondria (0.6 mg per experimental point) were incubated in a solution of 130 mM KCl, 10 mM Tris-Mops, 1 mM Pi-Tris, 20 mM EGTA-Tris and 2 µM rotenone/5 mM succinate to assay basal respiration (state 4). […]

[4] = tested on: mitochondria from CyP-D knock-out fibroblasts; assay: mitochondrial respiration assay, CyP-D knock-out fibroblast mitochondria; type: biochemical, mouse; settings: polarography, Clark electrode, 25°C
Experimental: as §2, §3

HeLa cells [5] = type: cell-based, human; settings: 30 min preincubation, then TAT-HK 1 hour
Experimental: A, cytofluorimetric analysis of cell death induction in HeLa cells treated for 1 hour with TAT-HK. […] TAT-Ctr was used as a negative control. Cells were double stained with Annexin V-FITC and propidium iodide (PI), to respectively evaluate apoptosis induction as phosphatidylserine exposure on the cell surface (increased Annexin V-FITC staining) and cell death as plasma membrane permeabilization (increased PI staining). We considered Annexin V^+ as early/intermediate apoptotic cells; PI^+ as necrotic cells; double stained as late apoptotic cells. Bar graphs display the percentage of each cell population (mean±SD, n = 4; double positive cells are added to both bars). […] B, histograms reporting a representative experiment, where viable cells are indicated in red, PI^+- and Annexin V^+-cells are indicated in grey and green, respectively.
Flow cytometry recordings were performed as described, [51], [52]. Briefly, at the end of the incubation, cells were resuspended in 135 mM NaCl, 10 mM HEPES, 5 mM CaCl2 and incubated at 37°C in either TMRM (10 nM) to detect mitochondrial depolarization (reduced TMRM staining), or in FITC-conjugated Annexin-V and propidium iodide (PI, 1 µg/ml), to detect phosphatidylserine exposure on the cell surface (increased FITC-conjugated Annexin-V staining) and loss of plasma membrane integrity (PI permeability and staining). […] Samples were analyzed on a FACSCanto II flow cytometer (Becton Dickinson, San Diego, CA, USA). Data acquisition and analysis were performed using FACSDiva software.

[6] = tested on: mitochondrial permeability transition pore (PTP), HeLa cells; assay: CRC assay, mitochondria isolated from HeLa cells; type: biochemical, human; settings: Figure 5A
Experimental: Figure 5 Effect of AA on mitochondrial potential of HeLa cells. A, bar graphs report the ratio between the CRC detected in the presence (CRC) and absence (CRC0) of increasing concentrations of AA in mitochondria from HeLa cells. […] B,C cytofluorimetric analysis of mitochondrial depolarization. HeLa cells were incubated with the TMRM probe and treated for 1 hour with the reported concentrations of either clotrimazole (CTM) or TAT-HK peptide. An unrelated TAT-linked peptide (TAT-Ctr) is used as a negative control. […] Bar graphs in B display the percentage of cells with depolarized mitochondria (mean±SD, n = 4). […] Histograms in C report a representative experiment, where cells with polarized and depolarized mitochondria are indicated in red and grey, respectively.
(§4) Mitochondria were isolated either from livers of C57BL/6 mice through sequential centrifugations, or from cells, as described. To obtain mitochondria, cells were disrupted with a glass-Teflon potter in a buffer composed by 250 mM sucrose, 10 mM Tris-HCl, 0.1 mM EGTA-Tris, pH 7.4. Nuclei and plasma membrane fractions were separated by a first mild centrifugation (700× g, 10 min), and mitochondria were then spinned down at a higher speed (7000× g, 10 min). All procedures were carried out at 0–4°C.
(§5) PTP opening was detected as a fluorescence increase.

immunosuppressant = tested on: immunosuppressant; parameters: method as in PMID 1494502, PMID 8441706; settings: ref [10], [11]; cited from earlier work
Source text: as §1

[7] = tested on: mitochondrial permeability transition pore (PTP), wild-type fibroblasts; assay: CRC assay, mitochondria isolated from wild-type mouse fibroblasts; type: biochemical; settings: Figure 3B
Experimental: Figure 3 Effect of AA on respiration and PTP opening in mitochondria of wild-type or CyP-D knock-out mouse fibroblasts. A, upper part: Western blot analysis assessing CyP-D expression in fibroblasts obtained from either wild-type or CyP-D knock-out mice; HKII was utilized to verify protein load; lower part: representative experiment showing oxygen consumption as assessed by polarography (see Methods) in mitochondria isolated from wild-type fibroblasts in the absence (a) or presence (b) of 8 µM AA. Experiments were started by adding 0.6 mg of mitochondria (Mito), followed by 100 µM ADP and 50 µM 2,4-dinitrophenol (DNP) (arrows). Each experiment was repeated at least three times. Oxygen consumption is reported as percentage of initial value on the y axis. B, bar graphs report the ratio between the CRC detected in the presence (CRC) and absence (CRC0) of increasing concentrations of AA, in mitochondria from either wild-type fibroblasts (left) or CyP-D knock-out fibroblasts (right).
as §4, §5

[8] = AA at various concentrations, mean±SD of at least 4 experiments, Student's t test

Substance: Antamanide [AA]
- inhibition of clotrimazole-induced cell death (HeLa cells [1]): inhibited the process
- inhibition of cell uptake of phalloidin [2]: block cell uptake of the phallotoxin phalloidin
- oxygen consumption [3]: unaffected
- oxygen consumption [4]: unaffected
- effect on TAT-HK-induced necrotic response (HeLa cells [5]): virtually abolished the necrotic response
- residual apoptosis after TAT-HK (HeLa cells [5]): a small fraction of cells undergoing apoptosis was still detectable
- protection from TAT-HK induced death (HeLa cells [5]; n = 4, Student's t test *: p<0.01): significantly protected from TAT-HK induced death
- CRC/CRC0: difference from CRC of untreated mitochondria [6, 8]: significant difference (Student's t test analysis; *: p<0.01)
- additivity of PTP inhibition with CsA ([6]; combination with CsA): the effect of AA did not add to that of CsA; also recorded: not additive
- PTP inhibition (CRC) ([6]; mitochondria from HeLa cells): AA inhibited the pore also in mitochondria isolated from HeLa cells
- immunosuppressant activity (immunosuppressant): acts as an immunosuppressant
- CRC/CRC0: difference from CRC of untreated mitochondria [7, 8]: significant difference (Student's t test analysis; *: p<0.01)
- additivity of PTP inhibition with CsA ([7]; combination with CsA): not enhanced by CsA; also recorded: not additive
- PTP inhibition (CRC) ([7]; isolated mitochondria, 25°C): AA inhibited the pore in mitochondria from wild-type fibroblasts
